We go through 40 molecules from paper PMC6212833 (mBio, 2018).

For assay [1], the system named is B. mandrillaris trophozoites. In words: Nitroxoline structure-activity relationship dose response (CellTiter Glo). The format is cell-based, Balamuthia mandrillaris. The following applies: for pIC50: 72 h; for activity against B. mandrillaris: SAR experiments.
Assay [2] relates to B. mandrillaris trophozoites. In words: microbe, parasite or virus in culture. It is filed as cell-based, Balamuthia mandrillaris. The note with it: for inhibition at 20 µM: Balamuthia mandrillaris; for % Inhibition: 20 µM.
Assay [3] relates to H4 human neuroglioma cells. In words: Secondary screening dose response, toxicity to H4 cells. The format is cell-based. The note with it: 72 h, approximated from dose-response curves.
For assay [4], the system named is B. mandrillaris trophozoites. In words: Secondary screening dose response, B. mandrillaris trophozoites. It is filed as cell-based, Balamuthia mandrillaris. The following applies: 72 h, read-out: B. mandrillaris IC50.
Description: (§1) Secondary screening of hit compounds consisted of dose-response experiments to measure the toxicity of each compound to B. mandrillaris trophozoites, HFF-1 human fibroblast cells, and H4 human neuroglioma cells. Four 384-well plates were prepared prior to addition of drug as follows: one opaque plate (Corning) seeded with 3,000 HFF-1 cells per well in 60 µl complete media, one opaque plate seeded with 2,000 H4 cells per well in 60 µl complete media, one opaque plate containing 30 µl axenic media, and one clear plate (Corning) containing 30 µl axenic media. Opaque plates were used to measure the viability of trophozoites in the CTG assay, and clear plates were used for microscopic examination of cyst formation. HFF-1 and H4 plates were seeded 24 h prior to drug addition. The selected primary screen hits were added from 10 mM DMSO stocks into wells of all four test plates to reach final concentrations ranging from 0.06 µM to 30 µM (10 concentrations, 2-fold serial dilution). Negative-control wells received concentrations of DMSO corresponding to the amount of DMSO in each tested drug well (reaching a maximum of 0.3% DMSO). B. mandrillaris trophozoites were resuspended in axenic media and added to the plates containing drug dilutions in axenic media at a density of 3,000 amoebae per well in a final volume of 60 µl media. All plates were incubated for 72 h. Throughout the incubation period, the clear-bottom B. mandrillaris plate was monitored for large-scale changes to population encystment in response to drug treatment. After the 72-h incubation, 30 µl of CTG reagent was added to all wells of the opaque assay plates and luminescence was measured with a Promega GloMax-Multi+ plate reader at 2, 4, and 8 h after CTG addition.
The subject of assay [5] is HFF-1 human fibroblast cells. In words: Secondary screening dose response, toxicity to HFF-1 cells. The format is cell-based. The note with it: 72 h, approximated from dose-response curves, read-out: HFF1 IC50.
Description: as §1
Assay [6] relates to B. mandrillaris. The arrangement: method as in PMID 15347743, PMID 23869955, PMID 16579814. The following applies: in vitro; cited from earlier work.
The mark [7] stands for this setting: 8-point dose response in triplicate, read-out: IC50.
[8] abbreviates: 72 h, relative to positive and negative controls.
Where [9] appears, read: Balamuthia mandrillaris, 8-point dose response in triplicate, read-out: IC50.
Where [10] appears, read: Balamuthia mandrillaris, 8-point dose response in triplicate.

pIC50: −log10 of the molar value. Structures can show the parent of a compound that is named as a salt. Where two headings read alike, the source gives them in different places.

The pIC50 is the negative decadic logarithm of the IC50, by convention in mol/L. In the case of 6-Nitroquinolone [compound 15], in assay [1] (setting [7]), the negative-log IC50 (pIC50) is 3.72.
The term inhibition denotes the change of the read-out against control, counted positive when it falls. On to `C[n+]1c2cc(N)ccc2cc2ccc(N)cc21` [Acriflavinium Hydrochloride], for which testing at 20 µM in assay [2] (72 h) gave an inhibition of 33%.
`CCCCC(CC)CNC(=N)NC(=N)NCCCCCCNC(=N)NC(=N)NCC(CC)CCCC` (stereo not shown) [Alexidine Hydrochloride] returned an inhibition at 20 µM in assay [2] (72 h) of 79%.
On to `CC(C)c1c(C(=O)Nc2ccccc2)c(-c2ccccc2)c(-c2ccc(F)cc2)n1CC[C@@H](O)C[C@@H](O)CC(=O)O` [Atorvastatin], for which the pIC50 in assay [3] (Homo sapiens) was < 4.52; in assay [4] (Balamuthia mandrillaris), < 4.52; in assay [5] (Homo sapiens, HFF-1) it was < 4.52. In addition, in assay [2] (72 h), the inhibition at 20 µM was found to be 40%.
In assay [2] (72 h), `CO/N=C(\C(=O)N[C@@H]1C(=O)N2C(C(=O)O)=C(COC(N)=O)CS[C@H]12)c1ccco1` [Cefuroxime Sodium] returned an inhibition at 20 µM of 41%.
Take `COCc1c(C(C)C)nc(C(C)C)c(/C=C/[C@@H](O)C[C@@H](O)CC(=O)O)c1-c1ccc(F)cc1` [Cerivastatin, Cerivastatin Na, Cerivastatin]: the pIC50 in assay [3] (Homo sapiens) was 6.70; in assay [4] (Balamuthia mandrillaris), 5.05; in assay [5] (Homo sapiens, HFF-1), > 7.22. The molecule also showed an inhibition at 20 µM in assay [2] (72 h) of 66%.
`CCCCCCCCCCCCCCCC[N+](C)(C)C` [Cetrimonium] came in with an inhibition at 20 µM in assay [2] (72 h) of 56%.
Turning to `[H]/N=C(\N/C(=N/[H])NCCCCCCNC(=N)NC(=N)Nc1ccc(Cl)cc1)Nc1ccc(Cl)cc1` [Chlorhexidine], the inhibition at 20 µM in assay [2] (72 h) turned out to be 64%.
For `Cc1cc(N)c2ccccc2[n+]1CCCCCCCCCC[n+]1c(C)cc(N)c2ccccc21` [Dequadin], the inhibition at 20 µM in assay [2] (72 h) came out at 69%.
The same measure, in the same setting: next, `Oc1ccc(Cl)cc1Cc1cc(Cl)ccc1O` [Dichlorophene, Dichlorophen, Dichlorophene]: 42%; `N=C(N)c1ccc(/N=N/Nc2ccc(C(=N)N)cc2)cc1` [Diminazene]: 46%; `O=C(O)c1ccccc1-c1c2cc(I)c(=O)c(I)c-2oc2c(I)c(O)c(I)cc12` [Erythrosine Sodium]: 66%.
In general, % Inhibition refers to the drop in the measured response relative to a control, in per cent. In the case of `C[CH2][Hg][S]c1ccccc1C(=O)O` [Ethylmercurithiosalicylic acid], the “% Inhibition” value in assay [2] (setting [8]) was found to be 107%.
For `Cc1cc(-c2ccc(/N=N/c3ccc4c(S(=O)(=O)O)cc(S(=O)(=O)O)c(N)c4c3O)c(C)c2)ccc1/N=N/c1ccc2c(S(=O)(=O)O)cc(S(=O)(=O)O)c(N)c2c1O` [Evans Blue], the inhibition at 20 µM in assay [2] (72 h) came to 74%.
Turning to `C=C1C[C@@H]2[C@H](CC[C@]3(C)C(=O)CC[C@@H]23)[C@@]2(C)C=CC(=O)C=C12` [Exemestane], the negative-log IC50 (pIC50) was < 4.52 in assay [3] (Homo sapiens); < 4.52 in assay [4] (Balamuthia mandrillaris); < 4.52 in assay [5] (Homo sapiens, HFF-1). In assay [2] (72 h), this molecule gave an inhibition at 20 µM of 47%.
On to `CN(C)c1ccc(C(=C2C=CC(=[N+](C)C)C=C2)c2ccc(N(C)C)cc2)cc1` [Gentian Violet], for which the inhibition at 20 µM in assay [2] (72 h) stood at 62%.
In assay [2] (72 h), `CC[n+]1c(-c2ccccc2)c2cc(N)ccc2c2ccc(N)cc21` [Homidium Bromide] came in with an inhibition at 20 µM of 44%.
Turning to `NC(=O)NO` [Hydroxyurea], the “% Inhibition” value in assay [2] is recorded as 44%.
Turning to `CN(C)CCCN1c2ccccc2CCc2ccccc21` [Imipramine], the negative logarithm of the IC50 (pIC50) in assay [3] (Homo sapiens) is < 4.52; in assay [4] (Balamuthia mandrillaris), < 4.52; in assay [5] (Homo sapiens, HFF-1), < 4.52. The molecule also had an inhibition at 20 µM in assay [2] (72 h) of 42%.
For the molecule `CC#C[C@]1(O)CC[C@H]2[C@@H]3CCC4=CC(=O)CCC4=C3[C@@H](c3ccc(N(C)C)cc3)C[C@@]21C` [Mifepristone], the negative-log IC50 (pIC50) in assay [3] (Homo sapiens) was < 4.52; in assay [4] (Balamuthia mandrillaris) it was < 4.52; in assay [5] (Homo sapiens, HFF-1), < 4.52. The same molecule registered an inhibition at 20 µM in assay [2] (72 h) of 43%.
Turning to `NC(=O)c1ccc[n+]([C@@H]2O[C@H](COP(=O)([O-])OP(=O)(O)OC[C@H]3O[C@@H](n4cnc5c(N)ncnc54)[C@H](O)[C@@H]3O)[C@@H](O)[C@H]2O)c1` [Nadide], 20 µM produced 87% inhibition in assay [2] (72 h).
Turning to `Cc1c(NC(=O)c2cccnc2)c(=O)n(-c2ccccc2)n1C` [Nifenazone], the negative-log IC50 (pIC50) is < 4.52 in assay [3] (Homo sapiens); < 4.52 in assay [4] (Balamuthia mandrillaris); < 4.52 in assay [5] (Homo sapiens, HFF-1). Besides, the inhibition at 20 µM in assay [2] (72 h) came to 70%.
Turning to `CC(=O)[O][Hg][c]1ccccc1` [Phenylmercuric Acetate], in assay [2] (setting [8]), the “% Inhibition” value was determined as 107%.
With `CNC(=C[N+](=O)[O-])NCCSCc1ccc(CN(C)C)o1` [Ranitidine], the negative-log IC50 (pIC50) in assay [3] (Homo sapiens) is < 4.52; in assay [4] (Balamuthia mandrillaris) it was < 4.52; in assay [5] (Homo sapiens, HFF-1), < 4.52. Moreover, in assay [2] (72 h), the inhibition at 20 µM is 68%.
Consider `Oc1cccc2cccnc12` [compound 2, 8-Hydroxyquinoline], for which, in assay [1] (setting [9]), the pIC50 was 4.52.
Still for that read-out and setting: next, `O=[N+]([O-])c1cccc2ncccc12` [compound 3, 5-Nitroquinoline]: 4.08.
As to `Oc1ccc(Br)c2cccnc12` [compound 6, 5-Bromo-8-hydroxyquinoline], the pIC50 in assay [1] (setting [9]) was 4.31.
Consider `Cc1ccc(O)c2ncccc12` [compound 7, 5-Methylquinolin-8-ol], for which the negative logarithm of the IC50 (pIC50) in assay [1] (setting [9]) is 4.70.
Take `O=S(=O)(O)c1ccc(O)c2ncccc12` [compound 13, 8-Hydroxy-5-quinolinesulfonic acid]: the negative logarithm of the IC50 (pIC50) was 3.47 in assay [1] (8-point dose response in triplicate, listed as 8-Hydroxy-5-quinolinesulfonic acid [13]) and 3.47 in assay [1] (setting [10]). Moreover, the “activity against B. mandrillaris” value in assay [1] was “inactive”.
`c1cnc2c(c1)ccc1cccnc12` [compound 14, 1,10-Phenanthroline]: the negative-log IC50 (pIC50) in assay [1] (setting [10]) is 4.80. Further, the “activity against B. mandrillaris” value in assay [1] is on record as “demonstrated activity against B. mandrillaris”.
For `[O-][n+]1cccc2cccc(O)c21` [compound 16, 8-Quinolinol N-oxide], in assay [1] (setting [7]), the pIC50 is 3.78.
As for `CCOc1ccc([N+](=O)[O-])c2cccnc12` [compound 17, 8-Ethoxy-5-nitroquinoline], the pIC50 in assay [1] (setting [7]) was 3.36.
In turn, `O=C(O)c1ccc2ccccc2n1` [compound 18, 2-Quinolinecarboxylic acid] had a pIC50 in assay [1] (Balamuthia mandrillaris) of 3.05.
`O=[N+]([O-])c1cnc2ccccc2c1O` [compound 19, 3-Nitro-4-quinolinol] had a pIC50 in assay [1] (setting [10]) of 2.88.
Turning to `OC(Cn1cncn1)(Cn1cncn1)c1ccc(F)cc1F` [fluconazole], in assay [6], the “inhibition of amoebic growth” value is recorded as “little to no inhibition”.
For the molecule `Nc1[nH]c(=O)ncc1F` [flucytosine], the “inhibition of amoebic growth” value in assay [6] was “little to no inhibition”.
For the molecule `Nc1ccc(S(=O)(=O)Nc2ncccn2)cc1` [sulfadiazine], the “inhibition of amoebic growth” value in assay [6] is listed as “little to no inhibition”.
On to `C[C@@H](c1ncncc1F)[C@](O)(Cn1cncn1)c1ccc(F)cc1F` [voriconazole], for which the “inhibition of amoebic growth” value in assay [6] is on record as “amoebicidal or amoebistatic activity”.
Turning to Demecarium Bromide, the “% Inhibition” value in assay [2] (setting [8]) turned out to be 60%.
Turning to Plicamycin, the negative logarithm of the IC50 (pIC50) in assay [3] was > 7.22; in assay [4] (approximated from dose-response curves) it was < 4.52; in assay [5], > 7.22. In addition, the “% Inhibition” value in assay [2] is 45%.
